Here are results for three compounds from publication PMC2664101 (Journal of medicinal chemistry, 2009).

Molecules are shown by their SMILES. Like-named read-outs stand apart in the source and are kept apart here.

In one data set the target is rat nNOS (Rattus norvegicus, UniProt P29476). The following applies: comparing 27 with 16.
Data set [1] concerns hypoxia-ischemia induced cerebral palsy. The settings on record: cited from earlier work; for fetal brain NOS activity in vivo / toxicity / cardiovascular effects / distribution to fetal brain / eNOS regulated blood pressure: rabbit; for hypoxia-ischemia induced deaths / number of newborn kits exhibiting symptoms of cerebral palsy: rabbit model for cerebral palsy.
Setting [2] is: following maternal administration.

Take `Cc1cc(C[C@H]2CNC[C@H]2NCCNCc2ccc(Cl)cc2)cc(N)n1.Cl` (racemic) [compound 27, N^1-{(±)-4′-[(2”-amino-6”-methylpyridin-4”-yl)methyl]pyrrolidin-3′-yl}-N^2-(4′-chlorobenzyl)ethane-1,2-diamine tetrahydrochloride]: the “drop in nNOS inhibitory potency” value at rat nNOS is “more than 200 fold”.
In the case of `Cc1cc(N)nc(C[C@H]2CNC[C@H]2NCCNCc2ccc(Cl)cc2)c1.Cl` [compound 16], in data set [1] (setting [2]), the “fetal brain NOS activity in vivo” value is recorded as “inhibit fetal brain NOS activity in vivo” and the toxicity entry is on record as “non-toxic”. In data set [1], the hypoxia-ischemia induced deaths entry was “prevent hypoxia-ischemia induced deaths” and the “number of newborn kits exhibiting symptoms of cerebral palsy” value is “reduce the number of newborn kits exhibiting symptoms of cerebral palsy”. In data set [1] (in vivo), the cardiovascular effects entry was “without cardiovascular effects”, the “distribution to fetal brain” value was “distribute to fetal brain” and the “eNOS regulated blood pressure” value is on record as “without affecting the eNOS regulated blood pressure”.
Consider `Cc1cc(N)nc(C[C@H]2CNC[C@H]2NCCNCCc2cccc(F)c2)c1` [compound 26], for which the “fetal brain NOS activity in vivo” value in data set [1] (setting [2]) was “inhibit fetal brain NOS activity in vivo”. Moreover, in data set [1], the hypoxia-ischemia induced deaths entry is “prevent hypoxia-ischemia induced deaths” and the “number of newborn kits exhibiting symptoms of cerebral palsy” value is listed as “reduce the number of newborn kits exhibiting symptoms of cerebral palsy”. In addition, in data set [1] (in vivo), the cardiovascular effects result is recorded as “without cardiovascular effects”, the “distribution to fetal brain” value was “distribute to fetal brain”, the “eNOS regulated blood pressure” value is recorded as “without affecting the eNOS regulated blood pressure” and the toxicity result was “non-toxic”.
